One test has as its target T1, TLR9 (Homo sapiens, UniProt Q9NR96).
T1 construct: lymphocytes, monocytes and dendritic cells that express TLR7, TLR8 and TLR9; endogenous in cells; host or cells: human PBMCs from healthy donors
T1 sequence (Q9NR96 26-1032): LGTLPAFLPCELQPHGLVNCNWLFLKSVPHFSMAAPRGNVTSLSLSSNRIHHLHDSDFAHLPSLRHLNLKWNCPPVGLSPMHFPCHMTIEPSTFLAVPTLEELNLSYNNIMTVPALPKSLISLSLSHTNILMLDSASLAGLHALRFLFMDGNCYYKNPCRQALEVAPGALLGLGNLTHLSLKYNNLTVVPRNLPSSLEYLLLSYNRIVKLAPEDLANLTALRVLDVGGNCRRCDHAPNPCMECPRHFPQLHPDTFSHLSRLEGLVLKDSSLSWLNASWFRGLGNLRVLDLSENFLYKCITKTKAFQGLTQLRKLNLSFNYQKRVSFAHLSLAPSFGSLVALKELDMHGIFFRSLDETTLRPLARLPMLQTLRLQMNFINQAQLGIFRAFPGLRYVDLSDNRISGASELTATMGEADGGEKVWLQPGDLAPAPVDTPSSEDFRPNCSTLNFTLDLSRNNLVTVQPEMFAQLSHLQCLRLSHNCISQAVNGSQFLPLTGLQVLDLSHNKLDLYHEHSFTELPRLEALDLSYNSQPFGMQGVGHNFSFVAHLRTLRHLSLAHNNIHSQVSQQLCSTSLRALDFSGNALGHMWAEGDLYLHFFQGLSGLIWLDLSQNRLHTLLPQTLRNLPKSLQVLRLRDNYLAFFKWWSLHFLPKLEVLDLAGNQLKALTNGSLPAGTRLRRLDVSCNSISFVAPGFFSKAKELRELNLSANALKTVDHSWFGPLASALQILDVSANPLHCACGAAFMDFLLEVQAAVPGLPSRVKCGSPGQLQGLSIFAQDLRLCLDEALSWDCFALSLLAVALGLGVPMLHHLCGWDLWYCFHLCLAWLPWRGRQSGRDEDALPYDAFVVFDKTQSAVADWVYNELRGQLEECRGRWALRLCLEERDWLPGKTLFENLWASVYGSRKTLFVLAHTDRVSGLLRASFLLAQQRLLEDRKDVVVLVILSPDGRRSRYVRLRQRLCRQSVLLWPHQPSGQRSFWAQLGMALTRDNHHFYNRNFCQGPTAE
The test is described as follows: Human PBMC cell-based assay, TLR9 agonist ODN-2216 stimulation, cytokine (IL-6 and IFNα) readout. The note with it: human PBMCs, ODN-2216 3 μM, 6 hours; Table 26; read-out: TLR-9 EC50. An outline of the steps:
(§1)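 Cryopreserved healthy-donor PBMCs (100,000 cells/well, RPMI-1640 + 10% FBS) preincubated 1 h at 37 °C with antagonist (10-point dose response), then stimulated 6 h with GS-986 (400 nM final, TLR7) or ODN-2216 (3 μM final, TLR9). Supernatant IL-6 and IFNα measured by electrochemiluminescence immunoassay; EC50 from sigmoidal fit.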

Another test addresses T2, TLR7 (Homo sapiens, UniProt Q9NYK1).
T2 construct: lymphocytes, monocytes and dendritic cells that express TLR7, TLR8 and TLR9; endogenous in cells; host or cells: human PBMCs from healthy donors
T2 sequence (Q9NYK1 27-1049): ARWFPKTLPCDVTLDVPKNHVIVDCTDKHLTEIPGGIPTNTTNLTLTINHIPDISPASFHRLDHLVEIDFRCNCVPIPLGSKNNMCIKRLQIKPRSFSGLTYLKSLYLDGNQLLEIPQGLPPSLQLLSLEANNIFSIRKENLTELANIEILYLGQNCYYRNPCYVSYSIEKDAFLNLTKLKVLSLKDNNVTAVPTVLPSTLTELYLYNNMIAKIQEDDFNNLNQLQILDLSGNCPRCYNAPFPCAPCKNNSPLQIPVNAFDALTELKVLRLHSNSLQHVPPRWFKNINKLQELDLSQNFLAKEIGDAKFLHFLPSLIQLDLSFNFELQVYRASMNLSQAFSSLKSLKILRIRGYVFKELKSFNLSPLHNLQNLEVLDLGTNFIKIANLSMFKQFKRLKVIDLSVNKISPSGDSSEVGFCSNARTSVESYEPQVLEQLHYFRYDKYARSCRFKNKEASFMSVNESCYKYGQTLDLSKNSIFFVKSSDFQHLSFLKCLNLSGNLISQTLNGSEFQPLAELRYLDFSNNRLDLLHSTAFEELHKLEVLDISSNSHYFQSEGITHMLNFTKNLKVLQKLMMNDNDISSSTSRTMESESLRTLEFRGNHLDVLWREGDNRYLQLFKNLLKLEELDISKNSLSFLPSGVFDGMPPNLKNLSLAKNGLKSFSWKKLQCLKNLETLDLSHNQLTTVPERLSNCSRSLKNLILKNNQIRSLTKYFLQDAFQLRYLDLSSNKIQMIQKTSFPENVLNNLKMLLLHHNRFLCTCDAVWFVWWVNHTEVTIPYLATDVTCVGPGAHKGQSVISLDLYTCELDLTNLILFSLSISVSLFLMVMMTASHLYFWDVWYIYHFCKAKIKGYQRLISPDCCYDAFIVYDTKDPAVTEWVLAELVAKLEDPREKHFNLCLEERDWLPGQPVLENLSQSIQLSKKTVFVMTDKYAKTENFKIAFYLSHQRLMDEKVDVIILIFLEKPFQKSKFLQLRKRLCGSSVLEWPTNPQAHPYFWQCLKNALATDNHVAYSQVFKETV
Nature of the test: Human PBMC cell-based assay, TLR7 agonist GS-986 stimulation, cytokine (IL-6 and IFNα) readout. The note with it: human PBMCs, GS-986 400 nM, 6 hours; Table 26; read-out: TLR-7 EC50. An outline of the steps: as §1

Structures are written as SMILES.

As for `Cc1cc(-c2[nH]c3cc(-c4cccc(C(=O)N5CCC(N)CC5)c4)ccc3c2C)cc(C)n1` [Example 122], the EC50 (usually the midpoint of the concentration-response curve) stood at 87.2 nM at TLR9 and 226 nM on TLR7.

As to `Cc1cc(-c2[nH]c3cc(-c4ccc5c(c4)ncn5C4CCNCC4)ccc3c2C)cc(C)n1` [Example 148, 5-[2-(2,6-dimethyl-4-pyridyl)-3-methyl-1H-indol-6-yl]-1-(4-piperidyl)benzimidazole], the figures for the EC50 on TLR9 and on TLR7 were 142 nM and 11.8 nM, respectively.

Consider `Cc1cc(-c2[nH]c3cc(-c4ccc(N5CCNCC5)nc4)ccc3c2C)cnn1` [Example 76], for which the EC50 at TLR9 is 421 nM; on TLR7 it was 63 nM.

Consider `Cc1c(-c2cnn3c2CCC3)[nH]c2cc(-c3ccc(N4CCNCC4)nc3)ccc12` [Example 89], for which the EC50 at TLR9 is 428 nM; at TLR7, > 1000 nM.

As to `Cc1cc(-c2[nH]c3nc(C4CCNCC4)ccc3c2C)cc(C)n1` [Example 152, 2-(2,6-dimethyl-4-pyridyl)-3-methyl-6-(4-piperidyl)-1H-pyrrolo[2,3-b]pyridine], the EC50 at TLR9 was found to be 178 nM; at TLR7, 1420 nM.

As for `Cc1cc(-c2[nH]c3cc(-c4ccc(N)nc4)ccc3c2C)cc(C)n1` [Example 5], the EC50 turned out to be 227 nM on TLR9 and 154 nM at TLR7.

As for `Cc1cc(-c2[nH]c3cc(-c4ccc5c(c4)CNC5)ccc3c2C)cc(C)n1` [Example 15], the EC50 on TLR9 was 55.6 nM; at TLR7 it was 53.6 nM.

As for `Cc1cc(-c2[nH]c3cc(-c4nc(N5CCNCC5)cs4)ccc3c2C)cc(C)n1` [Example 185, 2-(2-(2,6-dimethylpyridin-4-yl)-3-methyl-1H-indol-6-yl)-4-(piperazin-1-yl)thiazole], the EC50 turned out to be 54.3 nM at TLR9 and 37.4 nM on TLR7.

For `Cc1c(-c2cn(C)c(=O)n(C)c2=O)[nH]c2cc(-c3ccc(N4CCNCC4)nc3)ccc12` [Example 91], the results for the EC50 on TLR9 and at TLR7 were 540 nM and 104 nM, respectively.

Take `Cc1cc(-c2[nH]c3cc(-c4ccc(N5CCN(C(=O)[C@@H]6CC(F)(F)CN6)CC5)nc4)ccc3c2C)cc(C)n1` [Example 138]: the results for the EC50 on TLR9 and on TLR7 were 288 nM and 415 nM, respectively.

Take `COCCN1CCN(c2ccc(-c3ccc4c(C)c(-c5cc(C)nc(C)c5)[nH]c4c3)cn2)CC1` [Example 117]: the results for the EC50 at TLR9 and on TLR7 were 69.4 nM and 72.3 nM, respectively.

Consider `Cc1cc(-c2[nH]c3cc(-c4ccc(N5CCN(C(=O)CN(C)C)CC5)nc4)ccc3c2C)cc(C)n1` [Example 106, 2-(dimethylamino)-1-(4-(5-(2-(2,6-dimethylpyridin-4-yl)-3-methyl-1H-indol-6-yl)pyridin-2-yl)piperazin-1-yl)ethan-1-one], for which the half-maximal effective concentration (EC50) on TLR9 was 18.2 nM; at TLR7, 39.8 nM.

For the molecule `Cc1cc(-c2[nH]c3cc(-c4ccc(N5CCC[C@H](N)C5)nc4)ccc3c2C)cc(C)n1` [Example 26], the EC50 stood at 40.2 nM at TLR9 and 31 nM on TLR7.

With `Cc1c(-c2cn(C)c(=O)c3ccccc23)[nH]c2cc(-c3ccc(N4CCNCC4)nc3)ccc12` [Example 92], the EC50 came out at 1680 nM at TLR9 and 664 nM on TLR7.

`Cc1cc(-c2[nH]c3cc(-c4cccc(C(=O)N5CCNCC5)c4)ccc3c2C)cc(C)n1` [Example 12]: the EC50 is 47.3 nM at TLR9 and 103 nM at TLR7.

For the molecule `Cc1c(-c2ccc(C#N)c3ncccc23)[nH]c2cc(-c3ccc(N4CCNCC4)nc3)ccc12` [Example 97], the results for the EC50 on TLR9 and on TLR7 were 733 nM and 2.6 nM, respectively.

Take `Cc1cc(-c2[nH]c3cc(-c4ccc(N5CCNCC5)cc4)ccc3c2C)cc(C)n1` [Example 66]: the EC50 is 51.2 nM at TLR9 and 83.2 nM on TLR7.

As for `Cc1cc(-c2[nH]c3cc(-c4ccc(N5CCNCC5)nc4)ccc3c2C2CC2)cc(C)n1` [Example 63, 3-cyclopropyl-2-(2,6-dimethylpyridin-4-yl)-6-(6-(piperazin-1-yl)pyridin-3-yl)-1H-indole], the EC50 was 189 nM on TLR9 and 4.8 nM at TLR7.

`Cc1cc(-c2[nH]c3cc(-c4ccc(N5CCNC6(CC6)C5)nc4)ccc3c2C)cc(C)n1` [Example 22, 6-(6-(4,7-diazaspiro[2.5]octan-7-yl)pyridin-3-yl)-2-(2,6-dimethylpyridin-4-yl)-3-methyl-1H-indole]: the EC50 at TLR9 amounted to 153 nM; at TLR7, 64.4 nM.

For `Cc1cc(-c2[nH]c3cc(-c4ccn5ccnc5c4)ccc3c2C)cc(C)n1` [Example 57], the EC50 came out at 306 nM on TLR9 and 200 nM on TLR7.

For `Cc1cc(-c2[nH]c3cc(-c4ccc(N5CCN(C(=O)[C@@H]6CCCN6C)CC5)nc4)ccc3c2C)cc(C)n1` [Example 108], the half-maximal effective concentration (EC50) stood at 32.1 nM on TLR9 and 44.5 nM on TLR7.

Take `Cc1cc(-c2[nH]c3cc(-c4cnc(N5CCNCC5)c(C)c4)ccc3c2C)cc(C)n1` [Example 3]: the EC50 at TLR9 worked out at 56.3 nM; at TLR7 it was 22.8 nM.

`Cc1cc(-c2[nH]c3cc(-c4cnn(CC5CCNCC5)c4)ccc3c2C)cc(C)n1` [Example 183]: the concentration giving a half-maximal response (EC50) on TLR9 amounted to 785 nM; on TLR7, 323 nM.

Consider `Cc1cc(-c2[nH]c3cc(-c4ccc5c(n4)CCNC5)ccc3c2C)cc(C)n1` [Example 182], for which the EC50 at TLR9 turned out to be 47.1 nM; on TLR7, 59.6 nM.

As to `Cc1cc(-c2[nH]c3cc(-c4cccc(C(=O)N5CC[C@@H](N)C5)c4)ccc3c2C)cc(C)n1` [Example 121], the EC50 on TLR9 is 112 nM; on TLR7, 134 nM.

Consider `Cc1cc(-c2[nH]c3cc(-c4cnn(C5CCNCC5)c4)ccc3c2C)cc(C)n1` [Example 6], for which the figures for the EC50 on TLR9 and at TLR7 were 84.5 nM and 15.8 nM, respectively.

With `Cc1cc(-c2[nH]c3cc(-c4ccc(N5CCN(C(=O)[C@@H]6CNCCO6)CC5)nc4)ccc3c2C)cc(C)n1` [Example 112], the EC50 on TLR9 is 114 nM; at TLR7, 58.3 nM.

For `Cc1cc(-c2[nH]c3cc(-c4cnn(C5CC6CCC(C5)N6)c4)ccc3c2C)cc(C)n1` (stereo not drawn) [Example 184], the figures for the EC50 on TLR9 and at TLR7 were 268 nM and 16.9 nM, respectively.

Regarding `Cc1cc(-c2[nH]c3cc(-c4ccc(N5CCNCC5)nc4C)ccc3c2C)cc(C)n1` [Example 4], the EC50 is 153 nM at TLR9 and 26.1 nM at TLR7.

Regarding `CCc1c(-c2cc(C)nc(C)c2)[nH]c2cc(C3CCNCC3)ccc12` [Example 49, 2-(2,6-dimethylpyridin-4-yl)-3-ethyl-6-(piperidin-4-yl)-1H-indole], the EC50 stood at 358 nM on TLR9 and 549 nM at TLR7.
